{"source": "patent US20230352136A1", "about": "“SYSTEMS AND METHODS TO EVALUATE DRUG-INDUCED GASTROINTESTINAL DYSRHYTHMIA” (The Chinese University of Hong Kong, priority 2022, published 2023)", "key": {"[1]": {"system": "duodenum pacemaker potentials", "test": "MEA recording of pacemaker potentials (slow waves), isolated duodenum", "assay_type": "cell-based, Suncus murinus", "details": "for amplitude of slow waves: duodenum", "experimental": "(§1) Pacemaker potentials were recorded extracellularly on a 60-channel MEA system using full-thickness GI segments isolated from Suncus murinus. Basic slow-wave parameters, including frequency, amplitude, slope, period, and power partitions, were derived. Signal regularity was also evaluated using detrended fluctuation analysis and sample entropy analysis.\n(§2) Electrical recordings were taken after the animals were euthanised by carbon dioxide asphyxiation. […] The mesentery was removed, and the lumen contents were flushed with Krebs' medium. Segments (−1 cm) of duodenum, ileum, and colon were then isolated, but the stomach was kept intact. All tissue segments and the entire stomach were incubated in Krebs' medium containing nifedipine (1 μM; Sigma Aldrich, St Louis, MO, USA) for 15 min to inhibit smooth muscle activity. Pacemaker potentials were recorded using an MEA platform (MEA1060 1200×; Multichannel Systems, Reutlingen, Germany) as previously described. Briefly, tissues were placed onto the electrode field of an MEA chip (60-channel, 8×8 configuration, 3D-tip-shaped electrodes with a height of […] and an inter-electrode distance of 200 μm; Ayanda Biosystems SA, Lausanne, Switzerland). Intestinal segments were aligned horizontally to the recording electrode field, while the stomach was oriented with the antrum facing the recording electrode field. The chamber temperature was maintained at 37° C. and the sampling frequency was 1 kHz. […] All data were recorded and saved using MC_Rack (v 4.6.2, Multichannel Systems).\n(§3) Data analysis included basic slow-wave feature extraction using a custom automated program. […] The time point of drug administration was automatically identified based on the signal disturbance. The period of signal disturbance (20 s before and 40 s after the peak of the disturbance) was excluded from the analysis. Data were filtered using a passband between 0.1 Hz and 1 Hz and a stopband between 0.01 Hz and 2 Hz. The basic slow-wave features extracted were similar to those extracted in the inventors' previous studies. However, instead of using several templates and scripts written in Microsoft Excel and Spike 2, a one-step automatic and blinded MATLAB programme was used for data analysis. There were four major changes to the data analysis process as compared to the inventors' previous studies. First, auto-identification of the drug disturbance time point was used, rather than manual identification. Second, standardised signal filters were built in MATLAB to match the entire data analysis pipeline. […] Frequency partitioning was performed by segmenting the power spectrum of 0-50 cpm into the following four segments: brady-rhythm (within the range 2-[DF−1] cpm), normal-rhythm ([DF±1] cpm), tachy-rhythm (within the range [DF+1]-40 cpm), and out-of-range frequencies (<2 cpm and >40 cpm). Third, waveforms were identified using the MATLAB ‘findpeaks’ function, with a minimum peak height of […] at baseline and […] after drug treatment, with a step time of 5.4 s for the intestine and 12 s for the stomach. The average peak-to-peak amplitude, slope, and period were derived for all detected waveforms. Fourth, propagation velocity was derived using phase-difference measurements, based on the auto-select seed electrode with the highest percentage of normal rhythms.\n(§4) Dominant activation pattern identification included a phase-based analysis performed as previously described (Liu et al., 2021). Briefly, high-frequency spikes with amplitudes greater than […] were masked. Continuous frequencies were identified using continuous wavelet transformation, and the transformed data were used to plot spectrograms. […] High quality data were subjected to Hilbert transformation to identify the phase and frequency of the signals. Individual activation times were clustered using k-means clustering every 20 s and major activation patterns were grouped using a structural similarity index."}, "[2]": {"system": "ileum pacemaker potentials", "test": "MEA recording of pacemaker potentials (slow waves), isolated ileum", "assay_type": "cell-based, Suncus murinus", "details": "ileal tissues, 100 nM", "experimental": "as §1, §2, §3, §4"}, "[3]": {"details": "duodenal tissues, 0.1-100 μM, p>0.05, n=5-9"}}, "data": [{"molecule": "Cl.NCCc1ccc(O)c(O)c1", "note": "[dopamine, 3-Hydroxytyramine hydrochloride]", "values": [{"measurement": "waveform period", "setting": "[1]; duodenal tissues, 100 nM, baseline 2.52±0.21, p<0.05, n=7", "value": "3.27 ± 0.47", "unit": "s"}, {"measurement": "DFA fluctuation function (smaller scale 3-25)", "setting": "[1]; duodenal tissues, 100 nM, baseline 2.65±0.08, p<0.01, n=6", "value": "2.51±0.05"}, {"measurement": "percentage of tachy-rhythms", "setting": "[1]; duodenal tissues, 100 nM, baseline 12.5±5.7, p<0.05, n=7", "value": "2.1±0.7", "unit": "%"}, {"measurement": "percentage of dominant baseline activation patterns, second pattern", "setting": "[1]; duodenal tissues, 100 nM, baseline 23.3±5.7, p<0.05, n=7", "value": "8.4±11.2", "unit": "%"}, {"measurement": "average frequency (AF)", "setting": "[1]; duodenal tissues, 100 nM, baseline 24.1±2.0, p<0.05, n=7", "value": "20.9±0.7", "unit": "cpm"}, {"measurement": "dominant frequency (DF) of slow waves", "setting": "[1]; duodenal tissues, 100 nM, baseline 27.1±2.2, p<0.05, n=7", "value": "24.9±1.2", "unit": "cpm"}, {"measurement": "percentage of dominant baseline activation patterns, first pattern", "setting": "[1]; duodenal tissues, 100 nM, baseline 32.3±11.8, p<0.01, n=7", "value": "11.1±13.0", "unit": "%"}, {"measurement": "percentage of brady-rhythms", "setting": "[1]; duodenal tissues, 100 nM, baseline 35.7±10.3, p<0.0001, n=7", "value": "87.2±7.7", "unit": "%"}, {"measurement": "percentage of normal rhythms", "setting": "[1]; duodenal tissues, 100 nM, baseline 46.1±11.2, p<0.001, n=7", "value": "4.8±4.6", "unit": "%"}, {"measurement": "slope of waveforms", "setting": "[1]; duodenal tissues, 100 nM, baseline 321.7±95.5, p<0.01, n=7", "value": "166.9±57.7", "unit": "μV s^−1"}, {"measurement": "DFA fluctuation function (larger scale 26-46)", "setting": "[1]; duodenal tissues, 100 nM, baseline […], p<0.01, n=6", "value": "1.98±0.11"}, {"measurement": "DFA fluctuation function (larger scale 26-46)", "setting": "[1]; duodenal tissues, 1 μM, baseline 1.74±0.32, p<0.05, n=7", "value": "1.63±0.38"}, {"measurement": "number of groups of activation patterns", "setting": "[1]; duodenal tissues, 1 μM, baseline 6.2±1.0, p<0.05, n=6", "value": "6.8±1.0"}, {"measurement": "percentage of brady-rhythms", "setting": "[1]; duodenal tissues, 1 μM, baseline 25.8±12.3, p<0.05, n=6", "value": "53.7±26.6", "unit": "%"}, {"measurement": "percentage of dominant baseline activation patterns, first pattern", "setting": "[1]; duodenal tissues, 1 μM, baseline 33.7±13.1, p<0.05, n=6", "value": "12.8±9.4", "unit": "%"}, {"measurement": "representative spectrogram, effect on DF", "setting": "[1]; duodenal tissues, 10 μM", "value": "slightly shifted towards a lower frequency"}, {"measurement": "wave fronts counted in representative spatio-temporal map (1 min)", "setting": "[1]; duodenal tissues, 10 μM, 30 before treatment", "value": 27}, {"measurement": "average SampEn (smaller scale 1-5)", "setting": "[1]; duodenal tissues, 10 μM, baseline 0.58±0.05, p<0.05, n=7", "value": "0.60±0.04"}, {"measurement": "number of groups of activation patterns", "setting": "[1]; duodenal tissues, 10 μM, baseline 5.9±0.7, p<0.05, n=9", "value": "6.4±0.5"}, {"measurement": "percentage of dominant patterns (based on post-treatment data, FIG. 3E), second pattern", "setting": "[1]; duodenal tissues, 10 μM, baseline 10.2±9.1, p<0.05, n=5", "value": "18.5±2.3", "unit": "%"}, {"measurement": "percentage of normal rhythms", "setting": "[1]; duodenal tissues, 10 μM, baseline 52.4±14.7, p<0.05, n=9", "value": "7.8±6.4", "unit": "%"}, {"measurement": "slope of waveforms", "setting": "[1]; duodenal tissues, 10 μM, baseline 202.4±50.6, p<0.05, n=9", "value": "153.9±47.7", "unit": "μV s^−1"}, {"measurement": "DFA fluctuation function (larger scale 26-46)", "setting": "[1]; duodenal tissues, 100 μM, baseline 1.46±0.29, p<0.05, n=9", "value": "1.36±0.31"}, {"measurement": "waveform period", "setting": "[1]; duodenal tissues, 100 μM, baseline 2.44±0.72, p<0.05, n=5", "value": "3.26 ± 1.29", "unit": "s"}, {"measurement": "percentage of dominant baseline activation patterns, third pattern", "setting": "[1]; duodenal tissues, 100 μM, baseline 15.2±2.1, p<0.05, n=4", "value": "5.9±3.6", "unit": "%"}, {"measurement": "percentage of dominant patterns (based on post-treatment data, FIG. 3E), third pattern", "setting": "[1]; duodenal tissues, 100 μM, baseline 20.3±10.8, p<0.05, n=4", "value": "7.5±5.8", "unit": "%"}, {"measurement": "average frequency (AF)", "setting": "[1]; duodenal tissues, 100 μM, baseline 25.1±3.7, p<0.05, n=5", "value": "22.2±5.4", "unit": "cpm"}, {"measurement": "dominant frequency (DF) of slow waves", "setting": "[1]; duodenal tissues, 100 μM, baseline 28.6±4.1, p<0.05, n=5", "value": "26.3±5.2", "unit": "cpm"}, {"measurement": "percentage of dominant baseline activation patterns, first pattern", "setting": "[1]; duodenal tissues, 100 μM, baseline 29.3±5.5, p<0.01, n=4", "value": "7.0±7.0", "unit": "%"}, {"measurement": "percentage of brady-rhythms", "setting": "[1]; duodenal tissues, 100 μM, baseline 43.3±11.6, p<0.05, n=5", "value": "68.6±29.0", "unit": "%"}, {"measurement": "slope of waveforms", "setting": "[1]; duodenal tissues, 100 μM, baseline 322.2±108.6, p<0.01, n=5", "value": "182.5±61.7", "unit": "μV s^−1"}, {"measurement": "percentage of dominant baseline activation patterns, second pattern", "setting": "[1]; duodenal tissues, 100 μM, baseline […], p<0.05, n=4", "value": "7.4±4.1", "unit": "%"}, {"measurement": "dominant power (DP), change vs baseline", "setting": "[1]; [3]", "value": "No significant differences"}, {"measurement": "propagation velocities, effect", "setting": "[1]; [3]", "value": "did not affect"}, {"measurement": "average SampEn (larger scale 6-50), effect", "setting": "[1]; duodenal tissues, 0.1-100 μM, p>0.05, n=6-9", "value": "did not change"}, {"measurement": "DFA fluctuation function (smaller scale 3-25)", "setting": "[1]; duodenal tissues, 100 M, baseline 2.26±0.16, p<0.05, n=9", "value": "2.18±0.16"}, {"measurement": "percentage of tachy-rhythms", "setting": "[1]; duodenal tissues, 100 M, baseline 11.0±5.2, p<0.05, n=5", "value": "5.4±4.9", "unit": "%"}, {"measurement": "amplitude of slow waves", "setting": "[1]; 100 nM, baseline 193.0±54.9, p<0.01, n=7", "value": "114.1±37.7", "unit": "μV"}, {"measurement": "amplitude of slow waves", "setting": "[1]; 10 μM, baseline 117.6±24.2, p<0.05, n=9", "value": "97.4±13.7", "unit": "μV"}, {"measurement": "amplitude of slow waves", "setting": "[1]; 100 μM, baseline 199.3±60.5, p<0.01, n=5", "value": "121.1±27.3", "unit": "μV"}, {"measurement": "DFA fluctuation function (larger scale 26-46)", "setting": "[2]; baseline 1.71±0.17, p<0.05, n=6", "value": "1.55±0.13"}, {"measurement": "DFA fluctuation function (smaller scale 3-25)", "setting": "[2]; baseline 2.35±0.14, p<0.05, n=6", "value": "2.28±0.11"}, {"measurement": "waveform period", "setting": "[2]; baseline 2.66±0.40, p<0.05, n=7", "value": "3.73±1.05"}]}]}
